Experimental data from patent publication US20220184091A1, “Methods of Treating Cancer with Chk1 Inhibitors” (Sierra Oncology, Inc., priority 2019, published 2022).

Tests used:
[1] = tested on: SW1990; test: Cell viability, pancreatic cancer line SW1990; format: cell-based; conditions: Homo sapiens
[2] = tested on: CXCL10 and CCL5; test: qPCR of CXCL10 and CCL5 in MC38 tumors; format: in vivo, mouse
From the text: FIGS. 23A-D show the qPCR measurement of CXCL10 and CCL5 mRNA expression in MBT-2 (FIG. 23A and FIG. 23B) and MC38 (FIG. 23C and FIG. 23D) tumors resected after 7 or 14 days of treatment with SRA737 5/7 days. Data presented as mean±SD and p values by t-test * p<0.05, **p<0.01, ***p<0.001.
Real-time PCR was done using SYBR Select Master Mix (Life Technologies, cat #4472908) according to the manufacturer's protocol. Primers were purchased from Sigma Aldrich, Inc. Triplicate PCR reactions were run on ABI (7500 Fast Real Time PCR System). The comparative Ct method using the average 2ΔΔCT value for each set of triplicates was used, and the average of the biological replicates was calculated. Negative controls were included for every primer set, and GAPDH was used as the […].
The flank of immunocompetent mice was then treated with SRA737 monotherapy for 5-days-on/2-days-off for either one or two cycles and the expression of CCL5 and CXCL10 in extracted tumors were analyzed. […] The previously used dosing regimen of 5-days-on/2-days-off was modified to a schedule of 7-days-on/7-days-off for SRA737 treatment with or without co-treatment with anti-PD1 (Days 3, 7 and 11) based on the results of induction of chemokines secretion after 7 days.

[3] = Phase 1 clinical study, SRA737 monotherapy dose escalation; conditions: human, in vivo
Procedure: A Phase 1 clinical trial was conducted in ‘all comers,’ i.e. no genetic selection was performed, to establish safety, tolerability and pharmacokinetics (“Dose Escalation Phase”). Cohorts consisting initially of a single subject received escalating doses of SRA737, starting in Cohort 1 with 20 mg/day administered orally on a continuous daily dosing schedule in 28 day cycles. the dose was escalated until the maximum tolerated dose (MTD) was identified.
In the Dose Escalation Phase, 18 subjects received SRA737 in 9 dose level cohorts, from 20 to 1300 mg QD; median treatment duration 62.5 days (range 1 to 226). […] Two of 3 subjects experienced DLTs at the 1300 mg once daily dose, each being an inability to receive 75% of the planned SRA737 dose due to GI intolerability, with the individual GI effects being low grade. […] A cohort receiving 500 mg twice daily was added to determine if a twice daily dosing schedule can improve GI tolerability, given the half-life of SRA737 is approximately 10 hours. One of 6 subjects experienced DLTs in the 500 mg twice daily cohort; this was an inability to receive 75% of the planned SRA737 dose due to grade 4 thrombocytopenia with grade 3 neutropenia and anemia.

[4] = Excretion of SRA737 in rats; format: in vivo; conditions: rat; over 24 hours
Procedure: The excretion of SRA737 has been studied in mice and rats administered SRA737 at either 5 mg/kg IV or 10 mg/kg orally. Urine and feces were collected for a 24-hour period after dosing. In mice, renal excretion of intact SRA737 was consistently low (less than 10% of dose) after both oral and IV administration. Following IV administration of SRA737, less than 8% of the dose was recovered as intact drug in the feces while after oral administration this figure was less than 3%. Excretion of intact SRA737 was lower in the rat than in the mouse with <1% of dose excreted renally over 24 hours and less than 1.5% of dose excreted into the feces over 24 hours.

[5] = tested on: HGSOC PDX, OVCAR3, Ep-Myc, MOLM-13, TH-MYC, MDA-MB-231, Renca, LL/2 models; test: In vivo efficacy of SRA737 as a single agent; set-up: species or system mouse
Procedure: A program of in vivo efficacy studies was performed to assess the activity of SRA737 in combination with genotoxic chemotherapy and targeted agents, and as monotherapy.
One of these models also carried a MYCN amplification. A fourth HGSOC PDX model with partial resistance to PARPi was also sensitive to high dose SRA737 monotherapy.

[6] = target: T1, Chk1 S296 autophosphorylation (Homo sapiens, UniProt O14757); test: Gemcitabine-induced Chk1 S296 autophosphorylation in HT29 tumor xenografts (western blotting); format: in vivo, mouse; conditions: mice bearing HT29 xenografts; oral, 24 hours after gemcitabine 100 mg/kg IV
T1 construct: mice bearing HT29 tumor xenografts were administered; endogenous in cells; host or cells: HT29 human colon cancer xenografts in mice
T1 sequence (O14757 whole entry): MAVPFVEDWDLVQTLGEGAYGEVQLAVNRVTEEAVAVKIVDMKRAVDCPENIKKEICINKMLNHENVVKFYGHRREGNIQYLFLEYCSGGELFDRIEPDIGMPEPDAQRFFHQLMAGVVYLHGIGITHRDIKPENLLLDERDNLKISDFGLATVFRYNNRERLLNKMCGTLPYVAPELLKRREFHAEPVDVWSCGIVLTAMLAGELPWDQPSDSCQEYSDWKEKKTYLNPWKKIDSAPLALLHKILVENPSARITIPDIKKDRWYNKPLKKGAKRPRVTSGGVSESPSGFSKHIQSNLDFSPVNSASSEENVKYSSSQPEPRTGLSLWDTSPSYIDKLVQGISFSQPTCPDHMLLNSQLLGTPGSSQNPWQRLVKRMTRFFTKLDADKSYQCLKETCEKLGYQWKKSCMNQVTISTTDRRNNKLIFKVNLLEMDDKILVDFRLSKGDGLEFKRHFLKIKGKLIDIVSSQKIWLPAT
Procedure: The effect of SRA737 on Gemcitabine induced Chk1 S296 autophosphorylation was assessed as described in Walton et al. (Oncotarget. 2016 Jan. 19; 7(3): 2329-2342), herein incorporated by reference for all it teaches. Briefly, mice bearing HT29 tumor xenografts were administered (i) vehicle control or (ii) gemcitabine (100 mg/kg in saline, IV) or (iii) a combination of SRA737 (12.5, 25, 50 or 100 mg/kg in DTPW, oral) and gemcitabine (100 mg/kg) with SRA737 administered 24 hours following gemcitabine administration (n=3 per time point per treatment). […] Exposure in the tumor was greater than 10-fold higher than in plasma. The circulating plasma concentration at this 24-hour timepoint corresponded to a free drug concentration of approximately 6 nM (2 ng/mL) based on plasma protein binding in mice of 94%.

[7] = tested on: MBT-2; test: MBT-2 bladder flank tumor growth in immunocompetent mice; format: in vivo, mouse; conditions: SRA737 100 mg/kg 5-days-on/2-days-off p.o., anti-PD1 BIW 10 mg/kg i.p.
Procedure: Tumors were evaluated twice weekly for the duration of the study. Tumor volumes were measured on all mice three times per week and calculated (width^2×length×0.4) using manual calipers. Once the average tumor size was in the range of 120-150 mm^3, mice were randomized into dosing groups using stratified sampling by assigning three animals per group for short-term reverse-phase protein array analysis and long-term treatment. Dosing schedules and duration varied depending on the study. Mice were weighed three times per week for the duration of the study, and a decrease in body weight >15% was considered indicative of a toxic dose. The Student t-test was used to determine statistical significance between compound- and vehicle-treated groups.
Tumors cells were implanted into the flank of immunocompetent mice. Once the volumes of the tumor reached 150-200 mm^3, the mice were randomized and treated with either monotherapy of SRA737 at 100 mg/kg for 5-days-on/2-days-off p.o., anti-PD1 BIW at 10 mg/kg i.p. or the combination thereof.

[8] = target: T2, Chk1 (Homo sapiens, UniProt O14757); conditions: previously found; Walton et al.; cited from earlier work
T2 construct: endogenous in cells
T2 sequence (O14757 whole entry, species assumed): as the sequence (O14757 whole entry) above

Question: Which IC50 [1] does the source give for N#Cc1cnc(Nc2cc(NCC3CNCCO3)c(C(F)(F)F)cn2)cn1 (stereo not drawn) [SRA737, 5-[[4-[[morpholin-2-yl]methylamino]-5-(trifluoromethyl)-2-pyridyl]amino]pyrazine-2-carbonitrile] here?
Answer: 700 nM

Question: And the “expression of CCL5” value ([2]; after 7 days)?
Answer: modestly but not statistically significantly reduced

Question: What about the CXCL10 levels ([2]; after 14 days, p<0.05) of the same molecule?
Answer: significantly increased

Question: What about the “doses that exceeded the level effective in preclinical models” value [3] of the same molecule?
Answer: ≥ 300 mg

Question: And the T1/2 ([3]; 800 mg)?
Answer: 10.3 h

Question: And the “dose excreted into the feces” value [4]?
Answer: less than 1.5 % of dose

Question: What about the dose excreted renally [4] of the same molecule?
Answer: < 1 % of dose

Question: And the “sensitivity to high dose monotherapy” value ([5]; fourth HGSOC PDX model with partial resistance to PARPi)?
Answer: sensitive

Question: And the “antitumor activity as a single agent” value ([5]; several HGSOC PDX models with CCNE1 amplifications and TP53 mutations, data not shown)?
Answer: Significant antitumor activity

Question: What about the “SRA737 doses at which inhibition of pS296 Chk1 was observed” value [6] of the same molecule?
Answer: greater than or equal to 12.5 mg/kg

Question: And the TGI [7]?
Answer: 53%

Question: What about the “off-target activity against other kinases” value [8] of the same molecule?
Answer: limited off-target activity against other kinases
